Reference: patent publication US10029022B2, “Nuclear medicine diagnostic imaging agent” (Kyoto University, priority 2015, dated 2018)
Each block holds one compound with its values, some of them ahead of it.

Columns and labels:
[1] = target: T1, EGFR (T790M, L858R) (Homo sapiens, UniProt P00533, L858R/T790M); assay: EGFR Tyrosine Kinase Inhibiting Activity Measurement 1 (ADP-Glo), DM; type: biochemical; conditions: 1 h incubation with ATP/Poly(Glu, Tyr); >10: <50% enzyme inhibition at 10 μM
T1 construct: purchased Promega V5324
T1 sequence (P00533 25-1210 T790M/L858R): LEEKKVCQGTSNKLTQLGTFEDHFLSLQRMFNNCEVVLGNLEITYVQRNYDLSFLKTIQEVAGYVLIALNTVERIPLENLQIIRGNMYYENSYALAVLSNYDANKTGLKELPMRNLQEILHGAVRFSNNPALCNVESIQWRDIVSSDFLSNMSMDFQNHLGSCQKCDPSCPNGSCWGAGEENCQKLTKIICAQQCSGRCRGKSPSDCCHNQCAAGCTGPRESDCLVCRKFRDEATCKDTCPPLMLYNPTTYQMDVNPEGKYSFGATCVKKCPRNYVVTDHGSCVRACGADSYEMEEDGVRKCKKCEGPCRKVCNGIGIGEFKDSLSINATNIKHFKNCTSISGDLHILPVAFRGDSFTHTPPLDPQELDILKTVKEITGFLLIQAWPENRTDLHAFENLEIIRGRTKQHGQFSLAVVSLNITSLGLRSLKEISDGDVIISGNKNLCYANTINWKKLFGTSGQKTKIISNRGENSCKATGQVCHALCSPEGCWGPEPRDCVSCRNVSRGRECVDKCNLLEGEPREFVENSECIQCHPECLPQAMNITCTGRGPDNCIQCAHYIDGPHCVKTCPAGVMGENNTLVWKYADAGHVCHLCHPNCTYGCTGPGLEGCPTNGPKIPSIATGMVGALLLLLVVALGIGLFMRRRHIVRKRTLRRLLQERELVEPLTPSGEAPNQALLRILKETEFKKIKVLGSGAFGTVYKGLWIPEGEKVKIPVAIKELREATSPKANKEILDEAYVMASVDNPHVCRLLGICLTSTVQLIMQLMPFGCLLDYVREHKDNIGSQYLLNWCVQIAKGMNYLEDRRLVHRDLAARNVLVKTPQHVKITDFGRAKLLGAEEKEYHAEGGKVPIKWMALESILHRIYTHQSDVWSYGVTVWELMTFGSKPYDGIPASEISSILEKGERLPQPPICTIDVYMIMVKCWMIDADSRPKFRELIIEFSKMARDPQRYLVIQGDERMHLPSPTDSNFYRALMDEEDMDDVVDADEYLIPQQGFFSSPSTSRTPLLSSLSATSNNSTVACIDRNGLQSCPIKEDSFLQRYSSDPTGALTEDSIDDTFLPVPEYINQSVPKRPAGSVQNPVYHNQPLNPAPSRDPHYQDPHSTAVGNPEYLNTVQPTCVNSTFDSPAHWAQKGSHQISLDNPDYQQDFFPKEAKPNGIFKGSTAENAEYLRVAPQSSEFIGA
Description: (§1) The measurement was carried out according to the Promega protocol applications guide. That is, a buffer solution (40 mM Tris-HCl, pH 7.5, 20 mM MgCl2, 50 μM DTT and 0.1 mg/mL BSA) was used as a dilute solution. The concentration of each compound started at 100 μM (the final concentration, including 1% DMSO) with 5-fold dilutions with the buffer solution. Thus, ten concentrations of each compound were prepared. The initial concentration of PD158780 alone was set at 10 μM (the final concentration, including 1% DMSO) but it was prepared in the same manner as the compound group. Then, 2 μL of each concentration of each compound thus obtained was added to each well of a 384-well plate. Furthermore, 4 μL (20 ng) of an EGFR Kinase Buffer that came with each EGFR Kinase Enzyme System was added to each well, which then was incubated at room temperature for ten minutes. Subsequently, 4 μL of mixed solution of ATP (10 μM) and Poly(Glu, Tyr) (2 μg) substrate was added to each well, which then was incubated at room temperature for one hour. Then, 10 μL of ADP-Glo™ Reagent (ADP-Glo™ Kinase Assay, Promega) was added to each well, which then was reacted at room temperature for 40 minutes. Furthermore, 20 μL of Kinase Detection Reagent (ADP-Glo™ Kinase Assay, Promega) was added to each well, which then was reacted at room temperature for one hour. […] From the data thus obtained, dose-response curves and IC50 were calculated using GraphPad Prism 5 (GraphPad Software, Inc.).

[2] = target: T2, EGFR (T790M) (Homo sapiens, UniProt P00533, T790M); assay: EGFR Tyrosine Kinase Inhibiting Activity Measurement 1 (ADP-Glo), T790M; type: biochemical; conditions: 1 h incubation with ATP/Poly(Glu, Tyr); >10: <50% enzyme inhibition at 10 μM
T2 construct: purchased Promega V4506
T2 sequence (P00533 25-1210 T790M): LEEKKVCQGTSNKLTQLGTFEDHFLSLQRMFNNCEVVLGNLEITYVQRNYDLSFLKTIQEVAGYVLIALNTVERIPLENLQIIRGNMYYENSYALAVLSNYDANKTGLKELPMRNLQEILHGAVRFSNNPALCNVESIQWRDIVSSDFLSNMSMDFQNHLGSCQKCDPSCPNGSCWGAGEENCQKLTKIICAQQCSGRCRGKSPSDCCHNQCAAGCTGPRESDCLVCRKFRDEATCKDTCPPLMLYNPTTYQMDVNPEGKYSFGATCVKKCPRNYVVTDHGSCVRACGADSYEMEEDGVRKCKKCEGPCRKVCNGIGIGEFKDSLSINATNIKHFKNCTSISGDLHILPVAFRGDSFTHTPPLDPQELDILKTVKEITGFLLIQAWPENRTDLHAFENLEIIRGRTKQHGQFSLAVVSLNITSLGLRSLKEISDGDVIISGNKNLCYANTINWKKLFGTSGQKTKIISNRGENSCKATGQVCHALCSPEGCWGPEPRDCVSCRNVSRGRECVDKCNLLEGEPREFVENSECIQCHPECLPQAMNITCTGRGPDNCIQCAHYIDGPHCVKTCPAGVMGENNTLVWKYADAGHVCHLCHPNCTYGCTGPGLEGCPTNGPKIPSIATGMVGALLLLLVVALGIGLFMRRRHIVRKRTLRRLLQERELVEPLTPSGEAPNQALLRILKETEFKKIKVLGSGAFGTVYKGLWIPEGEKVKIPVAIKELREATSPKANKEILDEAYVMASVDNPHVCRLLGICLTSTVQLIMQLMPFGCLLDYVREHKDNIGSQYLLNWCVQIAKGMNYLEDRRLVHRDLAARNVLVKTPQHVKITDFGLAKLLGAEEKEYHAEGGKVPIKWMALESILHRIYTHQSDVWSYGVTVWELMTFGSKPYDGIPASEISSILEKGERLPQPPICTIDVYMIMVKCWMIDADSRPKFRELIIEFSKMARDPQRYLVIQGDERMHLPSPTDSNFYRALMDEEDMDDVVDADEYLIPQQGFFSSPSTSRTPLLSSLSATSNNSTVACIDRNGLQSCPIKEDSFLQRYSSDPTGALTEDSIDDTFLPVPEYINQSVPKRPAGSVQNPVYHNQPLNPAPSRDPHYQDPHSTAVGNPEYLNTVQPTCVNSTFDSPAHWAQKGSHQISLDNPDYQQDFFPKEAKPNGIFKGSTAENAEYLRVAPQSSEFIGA
Description: as §1

[3] = target: T3, EGFR (EGFR Kinase Enzyme System, WT) (Homo sapiens, UniProt P00533); assay: EGFR Tyrosine Kinase Inhibiting Activity Measurement 1 (ADP-Glo), WT; type: biochemical; conditions: for IC50: 1 h incubation with ATP/Poly(Glu, Tyr), >10: <50% enzyme inhibition at 10 μM
T3 construct: purchased Promega V3831
T3 sequence (P00533 25-1210): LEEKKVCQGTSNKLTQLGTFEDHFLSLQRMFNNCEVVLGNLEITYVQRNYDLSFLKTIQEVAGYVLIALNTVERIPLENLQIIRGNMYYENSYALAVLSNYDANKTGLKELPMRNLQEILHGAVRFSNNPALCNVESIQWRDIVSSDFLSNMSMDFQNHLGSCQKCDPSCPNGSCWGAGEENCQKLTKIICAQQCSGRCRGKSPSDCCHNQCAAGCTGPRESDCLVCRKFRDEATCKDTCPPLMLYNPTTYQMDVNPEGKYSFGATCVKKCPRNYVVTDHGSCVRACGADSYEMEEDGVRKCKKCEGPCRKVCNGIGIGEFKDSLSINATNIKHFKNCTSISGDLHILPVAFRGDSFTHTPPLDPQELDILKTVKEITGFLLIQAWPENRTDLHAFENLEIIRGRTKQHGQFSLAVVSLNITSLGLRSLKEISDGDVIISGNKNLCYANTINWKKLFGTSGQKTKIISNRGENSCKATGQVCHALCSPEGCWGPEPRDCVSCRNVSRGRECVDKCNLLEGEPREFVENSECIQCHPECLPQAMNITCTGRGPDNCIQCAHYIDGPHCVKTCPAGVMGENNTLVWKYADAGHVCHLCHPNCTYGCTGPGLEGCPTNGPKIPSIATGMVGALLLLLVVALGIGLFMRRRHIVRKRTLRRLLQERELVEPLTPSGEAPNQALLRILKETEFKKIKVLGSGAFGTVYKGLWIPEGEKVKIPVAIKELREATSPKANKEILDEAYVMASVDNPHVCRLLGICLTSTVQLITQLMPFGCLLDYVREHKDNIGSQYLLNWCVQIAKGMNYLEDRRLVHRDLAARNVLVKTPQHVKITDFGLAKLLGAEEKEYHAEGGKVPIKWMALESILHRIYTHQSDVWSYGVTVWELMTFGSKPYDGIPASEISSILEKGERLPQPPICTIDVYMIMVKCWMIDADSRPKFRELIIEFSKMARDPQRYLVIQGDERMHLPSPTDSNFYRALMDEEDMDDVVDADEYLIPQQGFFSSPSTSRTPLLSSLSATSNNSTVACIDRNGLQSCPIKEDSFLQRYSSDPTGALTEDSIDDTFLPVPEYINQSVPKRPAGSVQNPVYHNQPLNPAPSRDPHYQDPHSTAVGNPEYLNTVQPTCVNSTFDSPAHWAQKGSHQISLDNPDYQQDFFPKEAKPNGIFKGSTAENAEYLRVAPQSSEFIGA
Description: as §1

[4] = target: T4, EGFR (L858R) (Homo sapiens, UniProt P00533, L858R); assay: EGFR Tyrosine Kinase Inhibiting Activity Measurement 1 (ADP-Glo), L858R; type: biochemical; conditions: 1 h incubation with ATP/Poly(Glu, Tyr); >10: <50% enzyme inhibition at 10 μM
T4 construct: purchased Promega V5322
T4 sequence (P00533 25-1210 L858R): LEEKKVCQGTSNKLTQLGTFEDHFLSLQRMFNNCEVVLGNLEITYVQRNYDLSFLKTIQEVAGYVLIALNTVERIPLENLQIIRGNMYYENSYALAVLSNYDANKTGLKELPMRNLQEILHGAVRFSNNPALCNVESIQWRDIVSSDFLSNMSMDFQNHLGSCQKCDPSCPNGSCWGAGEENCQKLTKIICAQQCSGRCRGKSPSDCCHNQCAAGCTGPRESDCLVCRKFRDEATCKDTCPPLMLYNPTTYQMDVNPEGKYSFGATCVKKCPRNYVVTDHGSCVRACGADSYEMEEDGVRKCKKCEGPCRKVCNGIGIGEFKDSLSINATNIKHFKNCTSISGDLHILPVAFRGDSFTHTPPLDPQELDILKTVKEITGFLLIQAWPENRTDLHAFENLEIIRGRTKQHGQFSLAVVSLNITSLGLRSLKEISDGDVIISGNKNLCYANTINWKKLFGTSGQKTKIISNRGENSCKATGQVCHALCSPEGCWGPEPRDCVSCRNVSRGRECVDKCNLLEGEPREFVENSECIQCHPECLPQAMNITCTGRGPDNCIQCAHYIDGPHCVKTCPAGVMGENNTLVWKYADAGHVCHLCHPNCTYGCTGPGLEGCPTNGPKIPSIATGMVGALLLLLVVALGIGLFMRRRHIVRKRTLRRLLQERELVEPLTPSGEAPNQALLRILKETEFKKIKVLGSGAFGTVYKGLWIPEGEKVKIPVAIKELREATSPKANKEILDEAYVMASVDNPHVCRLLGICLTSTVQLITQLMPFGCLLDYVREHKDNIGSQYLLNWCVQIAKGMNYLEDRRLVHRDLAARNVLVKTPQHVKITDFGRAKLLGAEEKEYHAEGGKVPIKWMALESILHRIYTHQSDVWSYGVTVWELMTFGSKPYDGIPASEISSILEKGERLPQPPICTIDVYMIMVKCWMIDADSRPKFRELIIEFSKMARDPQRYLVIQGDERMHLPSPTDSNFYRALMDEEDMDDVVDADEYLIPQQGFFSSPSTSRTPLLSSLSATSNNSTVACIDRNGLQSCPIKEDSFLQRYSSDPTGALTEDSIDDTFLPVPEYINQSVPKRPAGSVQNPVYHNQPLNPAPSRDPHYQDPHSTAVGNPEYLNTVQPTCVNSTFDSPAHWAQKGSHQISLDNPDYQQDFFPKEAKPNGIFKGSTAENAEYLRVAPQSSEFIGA
Description: as §1

[5] = target: T5, L858R/T790M-mutated EGFR (Homo sapiens, UniProt P00533, L858R/T790M); assay: EGFR Tyrosine Kinase Inhibiting Activity Measurement 2, L858R/T790M; type: biochemical
T5 construct: purchased Promega V5324
Description: as §1, with “minutes.” for “minutes. Furthermore, 20 μL of Kinase Detection Reagent (ADP-Glo™ Kinase Assay, Promega) was added to each well, which then was reacted at room temperature for one hour.”

[6] = target: T6, L858R-mutated EGFR (Homo sapiens, UniProt P00533, L858R); assay: EGFR Tyrosine Kinase Inhibiting Activity Measurement 2, L858R; type: biochemical
T6 construct: purchased Promega V5322
Description: as §1, with “minutes.” for “minutes. Furthermore, 20 μL of Kinase Detection Reagent (ADP-Glo™ Kinase Assay, Promega) was added to each well, which then was reacted at room temperature for one hour.”

[7] = tested on: H3255 tumor-bearing mouse; assay: PET/CT Imaging 1; type: in vivo; conditions: 180 to 200 min after tail vein administration; FIG. 5
Description: [^18F]H4 (9.8 MBq/150 μL) was administered to a H3255 tumor-bearing mouse through a tail vein. He was anesthetized by inhalation of isoflurane (2.0%) from 175 minutes after the administration and then was imaged for 20 minutes from 180 minutes after the administration using a PET/CT device (FX-3300). Thereafter, CT imaging (60 kV, 320 μA) was carried out. The image reconstruction was carried out using 3D-OSEM.
Animal: Balb/c nu/nu mouse, 10 w, male, 22.2 g
Injection dose: 264 μCi/150 μL
(§2) Image acquisition: 180 to 200 min after administration
(§3) Condition of CT: 60 kV, 320 μA

[8] = tested on: H1975 cells (L858R/T790M mutation); assay: Cellular Uptake Inhibition Experiment 2 (AZD9291), H1975; type: cell-based, human; conditions: regardless of AZD9291 (0, 1, 5 μM), 2 h incubation; FIG. 2
Description: (§4) Two types of EGFR mutation-positive human non-small cell lung cancer cells H3255 (L858R mutation) and H1975 (L858R/T790M mutation) were cultured in a DMEM/Ham's F-12 medium (Nacalai Tesque) containing glutamine, antibiotics (penicillin-streptomycin), and 20% fetal bovine serum.
(§5) H3255 and H1975 cells (4×10^5 cells/well) were cultured in a 12-well plate for 24 hours. After the medium was removed, each well was washed with PBS(−) once. […] [^18F]H4 (148 kBq/well) was added to each well, which then was incubated in the 5% CO2 incubator at 37° C. for two hours. Each well was washed with 0.1% Tween 80/1% DMSO/PBS(−) three times, and the cells were dissolved with 0.2 N NaOH. The radioactivity of each solution was measured with the gamma counter and the protein concentration was determined using the BCA Protein Assay Kit (Pierce, Rockford, Ill.) and then the measurement results were analyzed.

[9] = tested on: H3255 tumor (L858R mutation); assay: Biodistribution Experiment (Blocking Experiment), H3255; type: in vivo, mouse; conditions: AZD9291 (17 μg) administered simultaneously, 180 min after administration; FIG. 4
Description: At 180 minutes after the administration, they were slaughtered and H3255 tumor tissues were removed. The mass and the accumulated radioactivity were measured, and the amount of accumulation (% dose/g) was calculated from the radioactivity per unit weight. […]

[10] = tested on: H3255 cells (L858R mutation); assay: Cellular Uptake Inhibition Experiment 2 (AZD9291), H3255; type: cell-based, human; conditions: AZD9291 0, 1, 5 μM pre-incubated 30 min, then 2 h; FIG. 2
Description: as §4, §5

[11] = tested on: H1975 tumor-bearing mouse; assay: PET/CT Imaging 2; type: in vivo; conditions: 180 to 200 min after administration; FIG. 6
Description: PET/CT Imaging 2 was carried out in the same manner as in PET/CT Imaging 1 except that a H1975 tumor-bearing mouse was used and the following imaging conditions were employed.
Animal: Balb/c nu/nu mouse, 9 w, male, 20.9 g
Injection dose: 486 μCi/150 μL
as §2, §3

[12] = tested on: H1975 tumor (L858R/T790M mutation); assay: Biodistribution Experiment (Blocking Experiment), H1975; type: in vivo, mouse; conditions: with or without AZD9291 (17 μg), 180 min after administration; FIG. 4
Description: At 180 minutes after the administration, they were slaughtered and H3255 tumor tissues were removed. The mass and the accumulated radioactivity were measured, and the amount of accumulation (% dose/g) was calculated from the radioactivity per unit weight. This was carried out in the same manner as above except that AZD9291 was not administered.
Furthermore, this experiment was carried out in the same manner as above except that H1975 tumor-bearing mice were used.

[13] = tested on: H1975 cells (L858R/T790M mutation); assay: Cellular Uptake Inhibition Experiment 1 (gefitinib), H1975; type: cell-based, human; conditions: regardless of gefitinib (0, 0.5, 1, 2.5 μM), 2 h incubation; FIG. 1
Description: as §4
(§6) The binding specificity of H4 to each mutated EGFR-TK was evaluated by a cellular uptake inhibition experiment using H3255 cells, which are L858R mutant cells, and H1975 cells, which are L858R/T790M mutant cells. H3255 and H1975 cells (4×10^5 cells/well) were cultured in a 12-well plate for 48 hours. After the medium was removed, each well was washed with PBS(−) once. Each fetal bovine serum-free DMEM/Ham's F-12 medium with [^18F]H4 (0.15 MBq/mL) and gefitinib (0, 0.5, 1, and 2.5 μM) added thereto was added to each well, which then was incubated in a CO2 incubator for two hours. Each well was washed with 0.1% Tween 80/1% DMSO/PBS(−) three times, and the cells were dissolved with 0.2 N NaOH. The radioactivity of each solution was measured with the gamma counter, and the protein concentration was determined using a BCA Protein Assay Kit (Pierce, Rockford, Ill.) and then the measurement results were analyzed.

[14] = tested on: H3255 tumor-bearing mouse; assay: Biodistribution Experiment in tumor-bearing mice; type: in vivo
Description: 1×10^7 cells/mouse of H3255 cells suspended in BD Matrigel™ Basement Membrane Matrix was implanted to the right shoulder of a 5-week-old male BALB/c nu/nu mouse (Shimizu Laboratory Supplies), and thereby a tumor-bearing mouse was prepared. They were used for experiments, with the tumor being 1 cm or smaller in diameter.
[^18F]H4 was dissolved in saline containing 0.1% Tween 80 so as to be 6 μCi/100 μL and 100 μL thereof was administered to each tumor-bearing mouse through a tail vein. The mice were decapitated/slaughtered at predetermined time points (30 minutes, 1 hour, 2 hours, and 3 hours after administration). The blood was collected and tissues were removed and then the mass and the accumulated radioactivity were measured. The amount of accumulation (% dose/g) was calculated from the radioactivity per unit weight and the accumulation in the tissues was evaluated. FIG. 3 is a graph showing an example of variations with time of the accumulation of [^18F]H4 in each organ.

[15] = tested on: H3255 cells (L858R mutation); assay: Cellular Uptake Inhibition Experiment 1 (gefitinib), H3255; type: cell-based, human; conditions: gefitinib 0, 0.5, 1, 2.5 μM, 2 h incubation; FIG. 1
Description: as §4, §6

[16] = 30 min after tail vein administration, average of 5 mice
[17] = 60 min after tail vein administration, average of 5 mice
[18] = 120 min after tail vein administration, average of 5 mice
[19] = 180 min after tail vein administration, average of 5 mice
[20] = from 30 min to 180 min after administration

IC50 [1]: > 10000 nM
IC50 [2]: > 10000 nM
IC50 [3]: 7210 nM
binding affinity to the wild-type EGFR (in words) ([3]; comment on Table 1): low binding affinity
IC50 [4]: 653 nM
SMILES: FCCOc1cccc(Nc2ncnc3cnc(NCCN4CCOCC4)cc23)c1 [Compound H2, N^4-(3-(2-Fluoroethoxy)phenyl)-N^6-(2-morpholinoethyl)pyrido[3,4-d]pyrimidine-4,6-diamine]

IC50 [1]: 4020 nM
IC50 [2]: 4110 nM
IC50 [3]: 17 nM
IC50 [4]: 15 nM
SMILES: FCCNc1cc2c(Nc3cccc(Br)c3)ncnc2cn1 [Compound H1, 4-[(3-Bromophenyl)amino]-6-(2-fluoroethylamino)pyrido[3,4-d]pyrimidine]

SMILES: O=C(/C=C/CN1CCN(CCF)CC1)Nc1cc2c(Nc3cccc(Br)c3)ncnc2cn1 [Compound H4, (E)-N-(4-((3-Bromophenyl)amino)pyrido[3,4-d]pyrimidin-6-yl)-4-(4-(2-fluoroethyl)piperazin-1-yl)but-2-enamide]
IC50 [1]: 406 nM
IC50 ([5]; 2 h incubation after ATP and Poly(Glu, Tyr) substrate were added, read-out: EGFR Kinase Inhibition: IC50, L858R/T790M): 326 ± 64 nM
binding affinity to the L858R/T790M-mutated EGFR (in words) ([5]; comment on Table 2): lower than AZD9291 and was higher than Erlotinib
IC50 [2]: 409 nM
IC50 [3]: 49 nM
IC50 ([6]; 2 h incubation after ATP and Poly(Glu, Tyr) substrate were added, read-out: EGFR Kinase Inhibition: IC50, L858R): 15.6 ± 0.8 nM
binding affinity to the L858R-mutated EGFR (in words) ([6]; comment on Table 2): relatively high binding affinity
IC50 [4]: 58 nM

Tumor/Blood Ratio [14, 16]: 1.99
Tumor/Muscle Ratio [14, 16]: 3.47
Tumor/Blood Ratio [14, 17]: 3.24
Tumor/Muscle Ratio [14, 17]: 8.89
Tumor/Blood Ratio [14, 18]: 3.28
Tumor/Muscle Ratio [14, 18]: 5.75
Tumor/Blood Ratio [14, 19]: 3.03
Tumor/Muscle Ratio [14, 19]: 9.29
Tumor/Blood Ratio [14, 20]: around 3
Tumor/Muscle Ratio [14, 20]: exceeded 5
metabolism and excretion (transition from the liver to the intestine) ([14]; tumor-bearing mice, 30 to 180 min after administration, FIG. 3): quickly metabolized and excreted
SMILES: O=C(/C=C/CN1CCN(CC[18F])CC1)Nc1cc2c(Nc3cccc(Br)c3)ncnc2cn1 [[^18F]H4, (E)-N-(4-((3-Bromophenyl)amino)pyrido[3,4-d]pyrimidin-6-yl)-4-(4-(2-[^18F]fluoroethyl)piperazin-1-yl)but-2-enamide]
accumulation in PET/CT image, H3255 implant [7]: accumulated specifically in the portion where H3255 was implanted
uptake of [^18F]H4 into the H1975 cells [8]: approximately 50 % ID/mg protein
reduction in accumulation of [^18F]H4 in the H3255 tumor [9]: 54%
uptake of [^18F]H4 into the H3255 cells [10]: inhibited by AZD9291
accumulation in PET/CT image, H1975 implant [11]: no specific accumulation
change of accumulation of [^18F]H4 in the H1975 tumor [12]: hardly changed
uptake of [^18F]H4 into the H1975 cells [13]: approximately 50 % ID/mg protein
uptake of [^18F]H4 into the H3255 cells [15]: inhibited by gefitinib

IC50 [3]: 6 nM
SMILES: CNc1cc2c(Nc3cccc(Br)c3)ncnc2cn1 [PD158780, reference compound]

IC50 [1]: > 10000 nM
IC50 [2]: > 10000 nM
IC50 [3]: 3750 nM
IC50 [4]: 686 nM
SMILES: Fc1ccc(Nc2ncnc3cnc(NCCN4CCOCC4)cc23)cn1 [Compound H3, N^4-(6-Fluoropyridin-3-yl)-N^6-(2-morpholinoethyl)pyrido[3,4-d]pyrimidin-4,6-diamine]
